Blank lines part the entries; values can stand above or below the compound they belong to.
What was measured:
Assay type in all cases: in vivo, Female Sprague Dawley rats
[1] = Pharmacokinetics after single intravenous administration (3 mg/kg), plasma LC-MS/MS; details: mean ± SD n=6
Experimental: This study is composed of two sections; the first section involves an investigation of the interconversion pharmacokinetics of the pure compounds, and the second focuses on tissue distribution. All rats were transferred to metabolic cages and fasted overnight for at least 10 h. The animals were then randomly divided into four groups (6 rats/group) to receive a single intravenous (i.v.) administration of either 6G, 6S, zingerone, or vehicle via the lateral tail vein at a dosage of 3 mg/kg. After a 7-week washout period, the rats received 30 mg/kg of the same test compounds through a single oral (p.o.) administration. Following each administration, blood samples (300 µL) were collected in heparinized tubes from the lateral tail vein (while rats were under anesthesia with isoflurane) at specified time points: 0.083, 0.25, 0.5, 1, 1.5, 2, 3, 4, 6, 8, and 24 h after administration. An additional 1 mL of blood sample was collected from each rat at pre-dose (0 h) and post-dose (24 h) for clinical laboratory testing and safety evaluation. All heparinized blood samples were initially centrifuged at 5,000 × g, 4 °C, for 10 min. Subsequently, the plasma was carefully transferred to a cryotube as an aliquot sample and then stored at −40 °C until analysis. Urine and feces were collected during the intervals of 0–24 h and 24–48 h post-dosing, and their weights and volumes were documented. All collected urine and feces samples were stored at −40 °C until analysis. Plasma samples were processed through protein precipitation. In brief, 50 µL of plasma was mixed with 200 µL of methanol containing 50 ng/mL of IS (dihydrocapsaicin). The mixtures were vortexed and centrifuged at 14,000 × g at 4 °C for 10 min. The supernatant was filtered through a […] PVDF membrane (Chrome Tech, MN, USA) before analysis. Investigation of glucuronide conjugations followed a previously published method with some modification ([Wang et al., 2017]; [Songvut et al., 2023]). A 50 μL aliquot of plasma, urine, or feces sample was incubated at 37 °C for a minimum of 30 min with 50 μL of β-glucuronidase (3,000 U/mL) in a sodium phosphate buffer (pH 6.8). For sample extraction, 150 μL of methanol containing 50 μg/L of IS was pipetted into the pre-incubated samples. Subsequently, the mixtures were vortexed for 10 min and then centrifuged at 14,000 × g at 4 °C for 10 min. The supernatants were filtered through a […] PVDF membrane (Chrome Tech, MN, United States) and then analyzed using the validated LC-MS/MS method. Quantitative analysis was conducted using liquid chromatography-tandem mass spectrometry (LC-MS/MS) with a Nexera X2 LCMS-8060NX instrument (Shimadzu, Japan). The instrument included a CBM-40lite system controller, CTO-40C column oven, SIL-40C XR autosampler, LC-40D XR solvent pump unit, FCV-DGU-403 degasser, and 20AH2 switching valve. The LC-MS/MS system was operated with a binary pump and equipped with a triple quadrupole mass spectrometer. Pharmacokinetic parameters were assessed using PK Solutions software (version 2.0) with non-compartmental analysis. The AUC was calculated using the Linear-Log Trapezoidal Method. The maximum plasma concentration (Cmax) and time to reach maximum plasma concentration (Tmax) were taken directly from the graph.

[2] = Pharmacokinetics and oral bioavailability after single oral administration (30 mg/kg), plasma LC-MS/MS; details: for AUC(0-t) / AUC(0-∞) / Cmax (obs): mean ± SD n=6; for Tmax (obs): median [IQR]
Experimental: (§1) This study is composed of two sections; the first section involves an investigation of the interconversion pharmacokinetics of the pure compounds, and the second focuses on tissue distribution. All rats were transferred to metabolic cages and fasted overnight for at least 10 h. The animals were then randomly divided into four groups (6 rats/group) to receive a single intravenous (i.v.) administration of either 6G, 6S, zingerone, or vehicle via the lateral tail vein at a dosage of 3 mg/kg. After a 7-week washout period, the rats received 30 mg/kg of the same test compounds through a single oral (p.o.) administration. Following each administration, blood samples (300 µL) were collected in heparinized tubes from the lateral tail vein (while rats were under anesthesia with isoflurane) at specified time points: 0.083, 0.25, 0.5, 1, 1.5, 2, 3, 4, 6, 8, and 24 h after administration. An additional 1 mL of blood sample was collected from each rat at pre-dose (0 h) and post-dose (24 h) for clinical laboratory testing and safety evaluation. All heparinized blood samples were initially centrifuged at 5,000 × g, 4 °C, for 10 min. Subsequently, the plasma was carefully transferred to a cryotube as an aliquot sample and then stored at −40 °C until analysis. Urine and feces were collected during the intervals of 0–24 h and 24–48 h post-dosing, and their weights and volumes were documented. All collected urine and feces samples were stored at −40 °C until analysis.
Plasma samples were processed through protein precipitation. In brief, 50 µL of plasma was mixed with 200 µL of methanol containing 50 ng/mL of IS (dihydrocapsaicin). The mixtures were vortexed and centrifuged at 14,000 × g at 4 °C for 10 min. The supernatant was filtered through a […] PVDF membrane (Chrome Tech, MN, USA) before analysis.
(§2) Investigation of glucuronide conjugations followed a previously published method with some modification ([Wang et al., 2017]; [Songvut et al., 2023]). A 50 μL aliquot of plasma, urine, or feces sample was incubated at 37 °C for a minimum of 30 min with 50 μL of β-glucuronidase (3,000 U/mL) in a sodium phosphate buffer (pH 6.8). For sample extraction, 150 μL of methanol containing 50 μg/L of IS was pipetted into the pre-incubated samples. Subsequently, the mixtures were vortexed for 10 min and then centrifuged at 14,000 × g at 4 °C for 10 min. The supernatants were filtered through a […] PVDF membrane (Chrome Tech, MN, United States) and then analyzed using the validated LC-MS/MS method.
Quantitative analysis was conducted using liquid chromatography-tandem mass spectrometry (LC-MS/MS) with a Nexera X2 LCMS-8060NX instrument (Shimadzu, Japan). The instrument included a CBM-40lite system controller, CTO-40C column oven, SIL-40C XR autosampler, LC-40D XR solvent pump unit, FCV-DGU-403 degasser, and 20AH2 switching valve. The LC-MS/MS system was operated with a binary pump and equipped with a triple quadrupole mass spectrometer.
Pharmacokinetic parameters were assessed using PK Solutions software (version 2.0) with non-compartmental analysis. The AUC was calculated using the Linear-Log Trapezoidal Method. The maximum plasma concentration (Cmax) and time to reach maximum plasma concentration (Tmax) were taken directly from the graph.
(§3) Plasma concentration-time profiles were plotted using GraphPad Prism 9.3.0 (GraphPad Software, USA). The absolute oral bioavailability was calculated as follows: F = (AUC p.o./dose p.o.)/(AUC i.v./dose i.v.). The percentage recovery of each administered compound was calculated as the total amount of the drug found in urine or feces divided by the administered dose. The tissue-to-plasma concentration ratios (K p) were calculated by dividing the concentration in the tissue by the corresponding plasma concentration at the respective sampling time point.

[3] = Percent recovery in urine and feces after intravenous or oral administration; details: % of administered dose
Experimental: as §1
Urine samples were centrifuged, and 50 µL of urine was extracted with 200 µL of 100% methanol. The mixture was vortexed for 10 min and subsequently centrifuged at 14,000 × g at 4 °C for 10 min. Feces and organs were weighed and homogenized with methanol (50:50% w/v). The supernatants of the extracted urine, feces, and organs were also filtered through a […] PVDF membrane (Chrome Tech, MN, USA) before analysis.
as §2, §3

[4] = plasma analyte after [6]-shogaol i.v. 3 mg/kg
[5] = plasma analyte after [6]-shogaol p.o. 30 mg/kg
[6] = intravenous administration 3 mg/kg of parent compound
[7] = oral administration 30 mg/kg of parent compound
[8] = plasma analyte after zingerone i.v. 3 mg/kg
[9] = plasma analyte after zingerone p.o. 30 mg/kg
[10] = plasma analyte after [6]-gingerol i.v. 3 mg/kg
[11] = plasma analyte after [6]-gingerol p.o. 30 mg/kg

- AUC(0-t) [1, 4]: 7,966.49 ± 3,782.71 ng-h/mL
- AUC(0-∞) [1, 4]: 7,974.90 ± 3,786.32 ng-h/mL
- AUC(0-t) [2, 5]: 11.88 ± 1.87 ng·h/mL
- AUC(0-∞) [2, 5]: 11.89 ± 1.87 ng·h/mL
- Cmax (obs) [2, 5]: 18.54 ± 6.93 ng/mL
- Tmax (obs) [2, 5]: 0.375 [0.25] h
- % Recovery excretion, feces T 0–24 h [3, 6]: 0.003 ± 0.003%
- % Recovery excretion, feces T 24–48 h [3, 6]: 0.004 ± 0.001%
- % Recovery excretion, urine T 0–24 h [3, 6]: 0.153 ± 0.112%
- % Recovery excretion, urine T 24–48 h [3, 6]: <0.001%
- % Recovery excretion, urine T 0–24 h [3, 7]: 0.042 ± 0.037%
- % Recovery excretion, urine T 24–48 h [3, 7]: <0.001%
Compound: CCCCC/C=C/C(=O)CCc1ccc(O[C@@H]2O[C@H](C(=O)O)[C@@H](O)[C@H](O)[C@H]2O)c(OC)c1 [[6]-shogaol glucuronide]

- AUC(0-t) [1, 8]: 12,873.76 ± 12,580.54 ng-h/mL
- AUC(0-∞) [1, 8]: 12,903.70 ± 12,585.11 ng-h/mL
- AUC(0–∞) of glucuronide compared to AUC(0–∞) of unconjugated compound ([2]; after zingerone oral administration 30 mg/kg): 6 fold
- AUC(0-t) [2, 9]: 5847.24 ± 134.65 ng·h/mL
- AUC(0-∞) [2, 9]: 5847.24 ± 134.65 ng·h/mL
- Cmax (obs) [2, 9]: 4593.37 ± 1192.68 ng/mL
- Tmax (obs) [2, 9]: 0.25 [0.00] h
- % Recovery excretion, urine T 0–24 h [3, 6]: 7.396 ± 6.349%
- % Recovery excretion, urine T 24–48 h [3, 6]: <0.001%
- % Recovery excretion, urine T 0–24 h [3, 7]: 4.245 ±3.009%
- % Recovery excretion, urine T 24–48 h [3, 7]: 0.166 ± 0.075%
Compound: COc1cc(CCC(C)=O)ccc1O[C@@H]1O[C@H](C(=O)O)[C@@H](O)[C@H](O)[C@H]1O [zingerone glucuronide]

- AUC(0-t) [1, 10]: 11,087.06 ± 7,432.61 ng-h/mL
- AUC(0-∞) [1, 10]: 11,087.09 ± 7,432.598 ng-h/mL
- AUC(0-t) [2, 11]: 549.22 ± 272.42 ng·h/mL
- AUC(0-∞) [2, 11]: 603.05 ± 268.67 ng·h/mL
- Cmax (obs) [2, 11]: 539.42 ± 377.66 ng/mL
- Tmax (obs) [2, 11]: 0.25 [0.00] h
- % Recovery excretion, urine T 0–24 h [3, 6]: 5.712 ± 2.768%
- % Recovery excretion, urine T 24–48 h [3, 6]: 0.146 ± 0.073%
- % Recovery excretion, urine T 0–24 h [3, 7]: 3.416 ± 1.735%
- % Recovery excretion, urine T 24–48 h [3, 7]: 0.036 ± 0.027%
Compound: [6]-gingerol glucuronide
